What was measured:
[1] = target: T1, SIRT2 (Homo sapiens, UniProt Q8IXJ6); assay: SIRT2 deacetylation of Trp 5-mer peptide, OAADPr mass spec assay; format: biochemical; design: His-SIRT2(1-389); conditions: Trp 5-mer peptide; class symbols; read-out: Trp SIRT2_IC50
T1 sequence (Q8IXJ6 1-389): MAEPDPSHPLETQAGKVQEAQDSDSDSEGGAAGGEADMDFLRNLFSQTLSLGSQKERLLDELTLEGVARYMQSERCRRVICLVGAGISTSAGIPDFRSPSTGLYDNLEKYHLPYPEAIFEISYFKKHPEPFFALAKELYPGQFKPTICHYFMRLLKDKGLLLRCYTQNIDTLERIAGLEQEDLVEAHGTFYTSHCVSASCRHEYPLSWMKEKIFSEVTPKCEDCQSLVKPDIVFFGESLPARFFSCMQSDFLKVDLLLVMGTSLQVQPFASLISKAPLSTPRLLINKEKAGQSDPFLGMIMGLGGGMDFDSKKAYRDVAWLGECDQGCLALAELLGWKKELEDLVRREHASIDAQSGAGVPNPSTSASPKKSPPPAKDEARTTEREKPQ

[2] = target: T2, SIRT1 (Homo sapiens, UniProt Q96EB6); assay: SIRT1 deacetylation of Trp 5-mer peptide, OAADPr mass spec assay; conditions: Trp SIRT1_IC50, Trp 5-mer peptide; class symbols
T2 sequence (Q96EB6 1-747): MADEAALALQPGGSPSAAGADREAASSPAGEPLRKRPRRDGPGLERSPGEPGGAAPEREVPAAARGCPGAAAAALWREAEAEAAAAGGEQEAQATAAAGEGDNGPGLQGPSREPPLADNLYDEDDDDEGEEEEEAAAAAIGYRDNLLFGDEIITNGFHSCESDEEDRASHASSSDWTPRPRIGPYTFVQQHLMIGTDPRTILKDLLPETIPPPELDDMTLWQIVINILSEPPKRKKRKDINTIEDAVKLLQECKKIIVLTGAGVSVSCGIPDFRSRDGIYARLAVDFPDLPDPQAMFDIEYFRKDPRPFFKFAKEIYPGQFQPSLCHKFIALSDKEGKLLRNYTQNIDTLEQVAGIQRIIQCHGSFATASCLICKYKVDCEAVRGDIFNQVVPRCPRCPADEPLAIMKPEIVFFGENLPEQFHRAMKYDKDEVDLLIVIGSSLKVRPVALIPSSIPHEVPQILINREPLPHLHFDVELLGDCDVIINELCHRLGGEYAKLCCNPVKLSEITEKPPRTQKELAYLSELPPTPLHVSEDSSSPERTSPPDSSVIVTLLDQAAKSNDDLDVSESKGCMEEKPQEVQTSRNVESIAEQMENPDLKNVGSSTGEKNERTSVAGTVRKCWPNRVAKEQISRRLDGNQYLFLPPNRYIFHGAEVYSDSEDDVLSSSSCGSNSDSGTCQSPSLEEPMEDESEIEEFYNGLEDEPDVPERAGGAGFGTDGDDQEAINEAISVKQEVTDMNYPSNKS
Procedure: (§1) All assays were performed at room temperature in reaction buffer (50 mM HEPES, pH 7.5, 150 mM NaCl, 1 mM DTT, 0.05% BSA). […] To prepare the assays for analysis, 20 μL of reaction volume was mixed in 80 μL of 50:50 acetonitrile:methanol mixture. […] Peak data was integrated using RapidFire Integrator software (Agilent, Santa Clara, Calif.).

[3] = target: T3, SIRT3 (Homo sapiens, UniProt Q9NTG7); assay: SIRT3 deacetylation of Trp 5-mer peptide, OAADPr mass spec assay; conditions: Trp SIRT3_IC50, Trp 5-mer peptide; class symbols
T3 sequence (Q9NTG7 102-399): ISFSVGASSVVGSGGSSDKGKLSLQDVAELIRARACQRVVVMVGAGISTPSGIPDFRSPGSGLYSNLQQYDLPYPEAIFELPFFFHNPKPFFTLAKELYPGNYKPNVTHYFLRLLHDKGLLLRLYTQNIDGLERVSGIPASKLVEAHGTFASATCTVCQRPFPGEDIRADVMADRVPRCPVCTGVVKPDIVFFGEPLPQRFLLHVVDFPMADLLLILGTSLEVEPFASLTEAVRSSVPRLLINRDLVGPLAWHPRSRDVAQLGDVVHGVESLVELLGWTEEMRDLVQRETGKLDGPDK
Procedure: as §1

IC50 [1] [µM]	IC50 [2] [µM]	IC50 [3] [µM]	SMILES
> 10	> 10	1 to 10	NC(=O)c1cc2ccnc(N3CCC(CN4CCCC4)CC3)c2s1 [Compound 170]
1 to 10	1 to 10	< 1	NC(=O)c1cc2ccnc(N3CCN(CCN4CCCC4)CC3)c2s1 [Compound 173]
< 1	< 1	< 1	NC(=O)c1cc2ncnc(N3CCC(C4CCNCC4)CC3)c2s1 [Compound 56]
< 1	< 1	< 1	NC(=O)c1cc2ncnc(N3CCC(CCNC(=O)C4CCCC4)CC3)c2s1 [Compound 53]
< 1	< 1	< 1	NCCCC1CCN(c2ncnc3cc(C(N)=O)sc23)CC1 [Compound 77, 4-(4-(3-aminopropyl)piperidin-1-yl)thieno[3,2-d]pyrimidine-6-carboxamide 2,2,2-trifluoroacetate]
< 1	< 1	< 1	COC(=O)c1ccc(C(=O)NCCC2CCN(c3ncnc4cc(C(N)=O)sc34)CC2)s1 [Compound 67]
> 10	> 10	> 10	CCNC(=O)c1ccc(C(=O)NCCC2CCN(c3ncnc4ccsc34)CC2)s1 [Compound 193]
< 1	1 to 10	< 1	NC(=O)c1cc2ncnc(N3CCC(CO)CC3)c2s1 [Compound 51]
< 1	< 1	< 1	NCCNC(=O)c1cccc(C(=O)NCCN2CCN(c3ncnc4cc(C(N)=O)sc34)CC2)c1 [Compound 127, N1-(2-aminoethyl)-N3-(2-(4-(6-carbamoylthieno[3,2-d]pyrimidin-4-yl)piperazin-1-yl)ethyl)isophthalamide]
< 1	1 to 10	< 1	CN(C)CC1CCN(c2ncnc3cc(C(N)=O)sc23)CC1 [Compound 43, 4-(4-((dimethylamino)methyl)piperidin-1-yl)thieno[3,2-d]pyrimidine-6-carboxamide]
1 to 10	> 10	1 to 10	CNCC1CCN(c2ncnc3cc(C(N)=O)sc23)CC1 [Compound 55, 4-(4-((methylamino)methyl)piperidin-1-yl)thieno[3,2-d]pyrimidine-6-carboxamide]
1 to 10	> 10	1 to 10	Cc1nc(N2CCN(CCNS(C)(=O)=O)CC2)c2sc(C(N)=O)cc2n1 [Compound 158]
1 to 10	1 to 10	< 1	NC(=O)c1cc2ccnc(N3CCC(CCN4CCCC4)CC3)c2s1 [Compound 169]
< 1	< 1	< 1	Cc1c(C(N)=O)sc2c(N3CCC(CCNC(=O)OC(C)(C)C)CC3)ncnc12 [Compound 116, tert-butyl (2-(1-(6-carbamoyl-7-methylthieno[3,2-d]pyrimidin-4-yl)piperidin-4-yl)ethyl)carbamate]
< 1	< 1	< 1	CCNC(=O)c1cc(Br)cc(C(=O)NCCC2CCN(c3ncnc4cc(C(N)=O)sc34)CC2)c1 [Compound 136, 5-bromo-N^1-(2-(1-(6-carbamoylthieno[3,2-d]pyrimidin-4-yl)piperidin-4-yl)ethyl)-N^3-ethylisophthalamide]
< 1	1 to 10	< 1	NC(=O)c1cc2ncnc(N3CCN(CCN4CCCC4)CC3)c2o1 [Compound 92]
< 1	< 1	< 1	COCCC1CCN(c2ncnc3cc(C(N)=O)sc23)CC1 [Compound 49]

IC50 [1] [µM]	IC50 [2] [µM]	IC50 [3] [µM]	SMILES
< 1	1 to 10	< 1	NC(=O)c1cc2nccc(N3CCC(CN4CCCC4)CC3)c2s1 [Compound 105]
1 to 10	1 to 10	1 to 10	CC(C)(C)OC(=O)NCCC1CCN(c2nccc3cc(C(N)=O)sc23)CC1 [Compound 168, tert-butyl (2-(1-(2-carbamoylthieno[2,3-c]pyridin-7-yl)piperidin-4-yl)ethyl)carbamate]
1 to 10	1 to 10	< 1	NC(=O)c1cc2ncnc(N3CCC(CN4CCCC4)CC3)c2o1 [Compound 90]
< 1	1 to 10	1 to 10	CC(C)(C)OC(=O)N1CCC2(CCN(c3ncnc4cc(C(N)=O)sc34)CC2)C1 [Compound 184]
> 10	> 10	> 10	COCCC1CCN(c2nccc3cc(C(N)=O)sc23)CC1 [Compound 171]
1 to 10	1 to 10	1 to 10	NC(=O)c1cc2ncnc(N3CCC(O)(CN4CCCC4)CC3)c2s1 [Compound 58]
< 1	< 1	< 1	CC(C)(C)C(=O)N1CCC2(CCN(c3ncnc4cc(C(N)=O)sc34)CC2)C1 [Compound 186]
< 1	< 1	< 1	CC(C)(C)OC(=O)NCCCC1CCN(c2ncnc3cc(C(N)=O)sc23)CC1 [Compound 76, tert-butyl (3-(1-(6-carbamoylthieno[3,2-d]pyrimidin-4-yl)piperidin-4-yl)propyl)carbamate]
< 1	1 to 10	< 1	NC(=O)c1cc2ncnc(N3CCC(CCO)CC3)c2o1 [Compound 93]
< 1	< 1	< 1	CC(C1CCN(c2ncnc3cc(C(N)=O)sc23)CC1)N1CCCC1 (stereo not drawn) [Compound 183]
< 1	< 1	< 1	CC(C)(C)C(=O)NCCN1CCN(c2ncnc3cc(C(N)=O)oc23)CC1 [Compound 97]
< 1	< 1	< 1	NC(=O)c1cc2ncnc(N3CCC(CCNC(=O)C4CCCC4)CC3)c2o1 [Compound 88]
1 to 10	> 10	> 10	NCCC1CCN(c2ncnc3ccsc23)CC1 [Compound 188, 2-(1-(thieno[3,2-d]pyrimidin-4-yl)piperidin-4-yl)ethanamine 2,2,2-trifluoroacetate]
1 to 10	1 to 10	> 10	CC(C)(C)OC(=O)N1CCC(C2CCN(c3ncnc4cc(C(N)=O)oc34)CC2)CC1 [Compound 94, tert-butyl 1′-(6-carbamoylfuro[3,2-d]pyrimidin-4-yl)-[4,4′-bipiperidine]-1-carboxylate]
1 to 10	1 to 10	1 to 10	COCCC1CCN(c2nc(C)nc3cc(C(N)=O)sc23)CC1 [Compound 148]
< 1	1 to 10	< 1	NCCC1CCN(c2ccnc3cc(C(N)=O)sc23)CC1 [Compound 104, 7-(4-(2-aminoethyl)piperidin-1-yl)thieno[3,2-b]pyridine-2-carboxamide]
< 1	1 to 10	< 1	Cc1nc(N2CCC(CCNC(=O)OC(C)(C)C)CC2)c2sc(C(N)=O)cc2n1 [Compound 145, tert-butyl (2-(1-(6-carbamoyl-2-methylthieno[3,2-d]pyrimidin-4-yl)piperidin-4-yl)ethyl)carbamate]

SMILES	IC50 [1] [µM]	IC50 [2] [µM]	IC50 [3] [µM]
NC(=O)c1cc2ncnc(N3CCC4(CCNC4)CC3)c2s1 [Compound 185]	1 to 10	1 to 10	< 1
